The test system of one data set is RV SA11 (G3P[2]) strain. Description: In vitro assay of RV replication inhibition (PFA). To be noted: Rotavirus. The class given is cell-based, Rotavirus. The protocol: (§1) For analysis of effects of different […] on RV replication in vitro, 10,000 MA104 cells, 30,000 Caco-2 cells, and 80,000 HT-29 cells in 100 µL complete DMEM medium were seeded in 96-well plates and cultured at 37°C and 5% CO2 for 24 h. Then the cells were infected with RV Wa or SA11 strains (MOI = 1 (PFU/cell)) for 1 h. After removing the viruses and washing cells two times with DMEM, 100 µL DMEM containing the indicated concentrations of drugs was added to each well, and the plates were incubated at 37°C and 5% CO2. At 24 h p.i., the infected cells and culture medium were collected, frozen/thawed twice, and subjected to centrifugation at 1,000 × g for 3 min at room temperature. Then, the supernatant was subjected to analysis of viral load by PFA. […] Dose-response data (drug concentrations as x-axis and normalized inhibition percentages as y-axis) were fitted to a dose-response inhibition model ([Inhibitor] vs normalized response – Variable slope). […] Model adequacy was validated using goodness-of-fit metrics (R^2 ≥ 0.95), 95% confidence intervals, and residual distribution analysis.
(§2) Wa/SA11 strains were titrated by PFA, which was carried out as described (3) with some modification. Briefly, confluent monolayers of MA104 cells in 24-well tissue culture plates were infected with 100 µL supernatants containing infectious RV particles which were serially diluted (10^1, 10^2, 10^3, and 10^4) with DMEM containing 1 µg/mL trypsin and penicillin (10,000 U/mL)-streptomycin (5 µg/mL) (DMEM-T) for 1 h at 37°C. Then 400 µL agarose overlay (0.8% agarose in 1×DMEM-T) was added and the plates were incubated at 37℃ and 5% CO2 for 5 days. The cells in each well were fixed by 1 mL 4% paraformaldehyde (Sangon Biotech, China) overnight (> 12 h) at room temperature. Then, the paraformaldehyde and agarose were removed and the monolayers were stained with 0.5 ml of a 1% (v/v) crystal violet (Sangon Biotech, China) diluted in distilled water for 10 min at room temperature. Then, the plates were drained and dried, and the plaques were enumerated. As the EDIM strain is not able to grow in cell culture, it was titrated by qPCR analysis as described (4) with EDIM VP6 gene as the target.

A further data set has as its system RV Wa (G1P[8]) strain. The data set is described as follows: In vitro assay of RV replication inhibition (PFA). The class given is cell-based, Rotavirus. The note with it: Rotavirus. The protocol:
as §1, §2

In a further data set the test system is HT-29 cells. Description: Cytotoxicity assay (CCK-8). To be noted: 24 h. Format: cell-based, Human. The protocol: (§3) To evaluate the cytotoxicity of different HSP90 inhibitors in vitro, 10,000 MA104 cells, 30,000 Caco-2 cells, and 80,000 HT-29 cells in 100 µL complete DMEM medium were seeded in 96-well plates and cultured at 37°C and 5% CO2 for 24 h to reach about 100% confluence, and a cell-free control was also set. After removing the initial medium, 100 µL of complete DMEM medium containing the indicated concentrations of drugs was added to each well, and the plates were incubated at 37°C and 5% CO2. Twenty-four hours later, the drug-containing medium was replaced with 100 µL fresh complete DMEM medium plus 10 µL 5 mM CCK-8 reagent (Beyotime, China), and OD450 absorbance of each well was detected 3 h later using a microplate reader (Gene Company Limited, China). Relative cell viability rate = OD450 (drug-treated cells − cell-free control) / OD450 (0 µM drug-treated cells − cell-free control).
(§4) The 50% cytotoxic concentration (CC50) values were determined by nonlinear regression (curve fit) analysis in GraphPad Prism 9.0 (GraphPad Software). Dose-response data (drug concentrations as X-axis and normalized cell viability percentages as Y-axis) were fitted to a Dose-response Inhibition model ("[Inhibitor] vs. normalized response-Variable slope"). The curve was constrained to a bottom limit of 0% viability. The CC50 value was automatically calculated as the X-intercept at Y=50%. Model adequacy was validated using goodness-of-fit metrics (R²≥0.95), 95% confidence intervals, and residual distribution analysis. Final CC50 values were derived from three independent biological replicates and reported as mean ± SEM.

A further data set deals with Caco-2 cells. Description: Cytotoxicity assay (CCK-8). The note with it: 24 h. Format: cell-based, Human. The protocol:
as §3, §4

Data set [1] is described as follows: Cytotoxicity assay (CCK-8). The note with it: human. Format: cell-based, Human. The protocol: as §3, §4
A short description of data set [2]: Cytotoxicity assay (CCK-8). The note with it: rhesus monkey. Format: cell-based, Rhesus monkey. The protocol: as §3, §4
A further data set has as its system MA104 cells. Description: Cytotoxicity assay (CCK-8). The class given is cell-based, Rhesus monkey. The note with it: 24 h. The protocol: as §3, §4
Where [3] appears, read: Caco-2, 24 h, read-out: IC50 (Fig 1B plot).
The mark [4] stands for this setting: HT-29, 24 h, read-out: IC50 (Fig 1B plot).
Where [5] appears, read: MA104, 24 h, read-out: IC50 (Fig 1B plot).

Molecules are shown by their SMILES. Where two headings read alike, the source gives them in different places.

The IC50 is the concentration that gives 50% inhibition. For orientation: CC50 means the concentration at which the toxic effect on the cells reaches its halfway point. Take `C=CCNC1=C2C[C@@H](C)C[C@H](OC)[C@H](O)[C@@H](C)/C=C(\C)[C@H](OC(N)=O)[C@@H](OC)/C=C\C=C(/C)C(=O)NC(=CC1=O)C2=O` [17-AAG, 17-allylamino-17-demethoxygeldanamycin]: the IC50 in the data set on RV SA11 (G3P[2]) strain (Caco-2, 24 h) was found to be 116 ± 33.3 nM; with RV SA11 (G3P[2]) strain (setting [3]) it was 113 nM; with RV SA11 (G3P[2]) strain (HT-29, 24 h), 54 ± 7.14 nM; in the data set on RV SA11 (G3P[2]) strain (setting [4]), 53.9 nM; in the data set on RV SA11 (G3P[2]) strain (MA104, 24 h), 3.52 ± 0.6 nM; with RV SA11 (G3P[2]) strain (setting [5]), 3.51 nM. The IC50 was 162 ± 34.2 nM in the data set with RV Wa (G1P[8]) strain (Caco-2, 24 h); 172 nM with RV Wa (G1P[8]) strain (setting [3]); 26.4 ± 20.5 nM in the data set on RV Wa (G1P[8]) strain (HT-29, 24 h); 21.9 nM with RV Wa (G1P[8]) strain (setting [4]); 6.81 ± 2.18 nM with RV Wa (G1P[8]) strain (MA104, 24 h); 6.58 nM with RV Wa (G1P[8]) strain (setting [5]). In addition, the half-maximal cytotoxic concentration (CC50) was found to be 20.7 ± 6.03 µM in the data set on HT-29 cells (HT-29 cells, CCK-8, read-out: CC50); 28.6 ± 9.73 µM with Caco-2 cells (Caco-2 cells, CCK-8, read-out: CC50); 23.3 ± 6.72 µM in the data set on MA104 cells (MA104 cells, CCK-8, read-out: CC50). Besides, the cytotoxic concentration (CC50) at 24 h was < 40 µM in data set [1] (Caco-2 cells, CCK-8); < 40 µM in data set [1] (HT-29 cells, 24 h, CCK-8, read-out: CC50); < 40 µM in data set [2] (MA104 cells, 24 h, CCK-8, read-out: CC50).
In the case of `COC1=C2C[C@@H](C)C[C@H](OC)[C@H](O)[C@@H](C)/C=C(\C)[C@H](OC(N)=O)[C@@H](OC)/C=C\C=C(/C)C(=O)NC(=CC1=O)C2=O` [GA, geldanamycin], the 50% inhibitory concentration (IC50) came out at 83.8 ± 20.6 nM with RV SA11 (G3P[2]) strain (SA11 strain in Caco-2 cells, MOI = 1, 24 h p.i., PFA, read-out: IC50); 83.7 nM in the data set on RV SA11 (G3P[2]) strain (SA11 strain in Caco-2 cells, representative experiment, 24 h, PFA, read-out: IC50 (Fig 1B plot)); 48.2 ± 34.8 nM in the data set with RV SA11 (G3P[2]) strain (SA11 strain in HT-29 cells, MOI = 1, 24 h p.i., PFA, read-out: IC50); 41.6 nM with RV SA11 (G3P[2]) strain (SA11 strain in HT-29 cells, representative experiment, 24 h, PFA, read-out: IC50 (Fig 1B plot)); 3.01 ± 0.77 nM in the data set on RV SA11 (G3P[2]) strain (SA11 strain in MA104 cells, MOI = 1, 24 h p.i., PFA, read-out: IC50); 2.94 nM with RV SA11 (G3P[2]) strain (SA11 strain in MA104 cells, representative experiment, 24 h, PFA, read-out: IC50 (Fig 1B plot)). For the same compound, the concentration for half-maximal inhibition (IC50) came to 91.7 ± 6.95 nM in the data set with RV Wa (G1P[8]) strain (Wa strain in Caco-2 cells, MOI = 1, 24 h p.i., PFA, read-out: IC50); 92 nM in the data set on RV Wa (G1P[8]) strain (Wa strain in Caco-2 cells, representative experiment, 24 h, PFA, read-out: IC50 (Fig 1B plot)); 16.5 ± 4.41 nM in the data set on RV Wa (G1P[8]) strain (Wa strain in HT-29 cells, MOI = 1, 24 h p.i., PFA, read-out: IC50); 16.1 nM in the data set on RV Wa (G1P[8]) strain (Wa strain in HT-29 cells, representative experiment, 24 h, PFA, read-out: IC50 (Fig 1B plot)); 10.5 ± 3.57 nM in the data set on RV Wa (G1P[8]) strain (Wa strain in MA104 cells, MOI = 1, 24 h p.i., PFA, read-out: IC50); 10.1 nM with RV Wa (G1P[8]) strain (Wa strain in MA104 cells, representative experiment, 24 h, PFA, read-out: IC50 (Fig 1B plot)). Also, the CC50 came out at 29.2 ± 5.06 µM in the data set on HT-29 cells (human), 20 ± 3.07 µM with Caco-2 cells (human) and 26.6 ± 5.55 µM with MA104 cells (rhesus monkey). For the same compound, the CC50 at 24 h in data set [1] (CC50) and in data set [2] (CC50) was < 40 µM in each case.

These data come from PMC12817916, “A small-molecule HSP90 inhibitor, NVP-HSP990, alleviates rotavirus infection” (Journal of Virology, 2025).
